# Assay results from patent US20240108734A1, “METHODS FOR TREATING AND AMELIORATING CANCER” (The Regents of the University of California, priority 2021, published 2024).
# Entries after “also recorded” stand apart in the source; their conditions may differ.
# Assays:
# [1] = test system: BC CML CD34+ cells engrafted in RAG2-/-yc-/- mice; assay: Humanized BC CML LSC mouse model; format: in vivo
# Text: Human CD34^+ cells isolated from MF and BC CML samples (Table S2, illustrated as FIG. 11) were transplanted intravenously into adult NSG-SGM3 (expressing human IL-3, GM-CSF and SCF) mice following 300 cGy of irradiation or intrahepatically into neonatal RAG2^−/− yc^−/− mice, respectively^27,32.
# Human CD34^+ cells isolated from MF and BC CML (Table S2) samples were transplanted intravenously into adult NSG-SGM3 (expressing human IL-3, GM-CSF and SCF) mice following
# 300 cGy of irradiation or intrahepatically into newborn RAG2^−/−[…]c^−/− mice^28,32,34. Post-transplantation (13 to 16 weeks), bone marrow and spleen were collected and analyzed by FACS^32. Mice were treated with vehicle, mismatch or imetelstat at varying doses. Also, MF CD34^+ cells were transduced with pCDH lentivirus control or ADAR1-OE lentivirus with a MOI of 100 for 48 hours, followed by intravenous transplantation into NSG-SGM3 mice to assess the impact of ADAR1 overexpression on MF engraftment.
# FIG. 4A. A schema of humanized BC CML LSC and MF SPC mouse models. Human CD34^+ cells sorted from either BC CML or myelofibrosis patient blood or marrow were transplanted into neonatal Rag2^−/−[…]c^−/− mice or intravenously transplanted into adult NSG-S mice. Engrafted BC CML or MF mouse models were randomized into (1) vehicle control, (2) mismatch control, and (3) imetelstat treatment groups (n≥3/group). Bone marrow (BM) and spleen were collected when completing the dosing plan, and the single-cell suspension was analyzed by FACS.
# [2] = test system: TERT; assay: RNA-seq of human CD45+ cells from treated BC CML mice; format: in vivo; settings: surviving human CD45+ cells; imetelstat compared with vehicle; p<0.01
# Protocol: For gene expression and RNA editing analysis, RNA editing sites were identified in REDIportal^34 (see the Supplementary Appendix). […] Gene Set Enrichment Analysis was performed with the Bioconductor package GSVA (see the Supplementary Appendix)^36. For in vitro and in vivo experiments, the Student's t-test was utilized to evaluate statistical significance of normally distributed data and Wilcoxon tests were utilized for non-normally distributed data with a p value of <0.05.
# FastQC (Andrews, S. & Others. FastQC: a quality control tool for high throughput sequence data. (2010) was used to perform quality control on raw fastq files. Sequencing reads were aligned to the human genome (hg19) using the STAR v2.5.1a aligner^19. RSEM^20 v1.3.0 and GENCODE annotation (genocode.v19.annotation.gtf) were used for read and transcript quantification, and R BioConductor packages edgeR^21 and Limma^22 were used to implement the limma-voom^23 method for differential expression analysis at both the gene and transcript levels. The experimental design was modeled upon disease and tissue type (˜0+disease; ˜0+tissue; ˜0+disease+tissue). Significance was defined by using an adjusted p-value cut-off of 0.05 after multiple testing correction using a moderated t-statistic in Limma. […] Gene Set Enrichment Analysis was performed with the Bioconductor package GSVA^25.
# FIG. 5C. […]
# [3] = test system: beta-catenin; assay: qRT-PCR gene expression in BC CML CD34+ cells in stromal co-culture; format: cell-based, human; settings: imetelstat monotherapy 5 μM for 14 days vs mismatch control
# Protocol: (§1) FIG. 7 illustrates supplementary FIG. 2, where gene expression qRT-PCR analyses of human CD34^+ cells sorted from BC CML patient samples (n=3) and MF patient samples (n=5) that were co-cultured with SL/M2 stromal cells and treated with mismatch control or imetelstat at 5 μM for 14 days.
# [4] = test system: ADAR1; assay: as above; format: cell-based, human; settings: imetelstat monotherapy 5 μM for 14 days vs mismatch control
# Protocol: as §1
# [5] = 30 mg/kg imetelstat three times a week for 4 weeks, 5 different BC CML, vs vehicle controls
substance,measurement,setting,value
imetelstat,human CD45+ cell proliferation / engraftment,[1]; [5],significant reduction; also recorded: reduced
same,malignant progenitor proliferation / engraftment,[1]; [5],significant reduction; also recorded: reduced
same,splenomegaly,[1]; BC CML xenograft,decreases splenomegaly
same,TERT expression by RNA-seq,[2],reduction
same,beta-catenin self-renewal gene expression by qRT-PCR,[3],ineffective
same,ADAR1 gene expression by qRT-PCR,[4],ineffective
